Data set [1] concerns Hepatitis C virus. In words: Antiviral activity against HCV 1b infected in human HuH7 cells assessed as inhibition of viral sub-genomic replication by EG(delta-4AB)SEAP reporter protein assay. The format is functional, organism-based, Hepacivirus hominis. Conditions: genotype 1b, Huh-7.
The nature of data set [2]: Cytotoxicity against human HuH7 cells. The format is cell-based, Huh-7.
Data set [3] can be described thus: Selectivity index, ratio of CC50 for human HuH7 cells to EC50 for HCV 1b. On the set-up: species or system Huh-7.

Broadly, the EC50 is the concentration giving half of the maximal effect. Usually CC50 stands for the concentration at which the toxic effect on the cells reaches its halfway point. A higher CC50 goes with better tolerance by the cells.

Some results are limits rather than exact numbers.

On to `CC(C)(C)c1ccc(NC(=S)NCCCCCCCCOc2cccc(NC(N)=S)c2)cc1`, for which the EC50 in data set [1] came to 60 nM. The compound also displayed a CC50 in data set [2] of 17000 nM. Moreover, in data set [3], the “Ratio CC50/EC50” value is given as 283.
With `NC(=S)Nc1cccc(OCCCCCN2CCCCN(c3ccc(Cl)cc3)C2=O)c1`, the EC50 in data set [1] was 250 nM. For the same compound, in data set [2], the CC50 was determined as 13000 nM. Further, the “Ratio CC50/EC50” value in data set [3] is 52.
`CCn1c2ccccc2c2cc(NC(=S)NCCCCCCCCOc3cccc(NC(N)=S)c3)ccc21`: the EC50 in data set [1] was 54 nM. This compound also had a CC50 in data set [2] of over 50000 nM. Moreover, in data set [3], the “Ratio CC50/EC50” value was over 926.
As for `NC(=S)Nc1cccc(OCCCCCN2CCN(c3ccc(Cl)cc3)C2=O)c1`, the EC50 in data set [1] was found to be 280 nM. In addition, half-maximal cytotoxicity in data set [2] (CC50) was put at 39000 nM. Also, the “Ratio CC50/EC50” value in data set [3] is listed as 139.
In the same order, the values of `NC(=S)Nc1cccc(OCCCCCc2ccccc2)c1` are 48 nM, 22000 nM and 458.
The corresponding values for `NC(=S)Nc1cccc(OCCCCCNC(=S)Nc2cccc3ccccc23)c1` are 450 nM, over 50000 nM and over 111.
In the case of `CCCCCCn1c2ccccc2c2cc(NC(=S)NCCCCCCCCOc3cccc(NC(N)=S)c3)ccc21`, the EC50 in data set [1] was 36 nM. This compound also yielded a CC50 in data set [2] of over 50000 nM. For the same compound, the “Ratio CC50/EC50” value in data set [3] is listed as over 1389.
The corresponding values for `NC(=S)Nc1cccc(OCCCCCN2CCN(c3ccc(C4CCCCC4)cc3)C2=S)c1` are 167 nM, over 50000 nM and over 299.
In the same order, the values of `NC(=S)Nc1cccc(OCCCCCN2CCN(c3ccc(C4CCCCC4)cc3)C2=O)c1` are 290 nM, 12000 nM and 41.
As to `NC(=S)Nc1cccc(OCCCCCCCCNC(=S)Nc2ccc3c(c2)c2ccccc2n3Cc2ccccc2)c1`, the EC50 in data set [1] was found to be 36 nM. In addition, the CC50 in data set [2] is over 50000 nM. Moreover, in data set [3], the “Ratio CC50/EC50” value is over 1389.
The corresponding values for `NC(=S)Nc1cccc(OCCCCCN2CCN(c3cccc4ccccc34)C2=O)c1` are 570 nM, 15000 nM and 26.
With `Cc1ccc(-n2c3ccccc3c3cc(NC(=S)NCCCCCCCCOc4cccc(NC(N)=S)c4)ccc32)cc1`, in data set [1], the EC50 was determined as 31 nM. The same compound displayed a CC50 in data set [2] of over 50000 nM. Also, the “Ratio CC50/EC50” value in data set [3] is given as over 1612.
In the same order, the values of `NC(=S)Nc1cccc(OCCCCCCCCNC(=S)Nc2ccc(Br)cc2)c1` are 47 nM, 18000 nM and 383.
For the compound `Cc1c(NC(N)=S)cccc1OCCCCCNC(=S)Nc1cccc2ccccc12`, in data set [1], the EC50 is over 50000 nM. For the same compound, the CC50 in data set [2] was over 50000 nM. Moreover, in data set [3], the “Ratio CC50/EC50” value is given as over 1.
In the case of `NC(=S)Nc1cccc(OCCCCCCCCNC(=S)Nc2ccc3c(c2)C(=O)c2ccccc2-3)c1`, the EC50 in data set [1] came to 53 nM. This compound also yielded a CC50 in data set [2] of over 50000 nM. Besides, the “Ratio CC50/EC50” value in data set [3] is recorded as over 943.
The corresponding values for `NC(=S)Nc1cccc(OCCCCCN2CCN(c3ccccc3-c3ccccc3)C2=O)c1` are 396 nM, 12000 nM and 30.
`CCCn1c2ccccc2c2cc(NC(=S)NCCCCCCCCOc3cccc(NC(N)=S)c3)ccc21`: the EC50 in data set [1] was found to be 48 nM. Besides, the CC50 in data set [2] is over 50000 nM. In addition, the “Ratio CC50/EC50” value in data set [3] was over 1042.
In the same order, the values of `NC(=S)Nc1cccc(OCCCCCNC(=O)Nc2cccc3ccccc23)c1` are 1390 nM, over 50000 nM and over 36.
Turning to `NC(=S)Nc1cccc(OCCCCCCCCNC(=S)Nc2ccc(Cl)cc2)c1`, the EC50 in data set [1] was 62 nM. This compound gave a CC50 in data set [2] of 18000 nM. The “Ratio CC50/EC50” value in data set [3] was 290.
Take `NC(=S)Nc1cccc(OCCCCCN2CCN(c3ccc(Cl)c(Cl)c3)C2=O)c1`: the EC50 in data set [1] is 210 nM. Besides, in data set [2], the CC50 turned out to be 13000 nM. Further, the “Ratio CC50/EC50” value in data set [3] is reported as 62.
In the same order, the values of `NC(=S)Nc1cccc(OCCCCCN2CCN(c3ccc(Cl)c(Cl)c3)C2=S)c1` are 200 nM, over 50000 nM and over 250.
With `NC(=S)Nc1cccc(OCCCCCN2CCN(c3ccccc3-c3ccccc3)C2=S)c1`, in data set [1], the EC50 is 234 nM. Besides, in data set [2], the CC50 is over 50000 nM. The “Ratio CC50/EC50” value in data set [3] is listed as over 214.
On to `NC(=S)Nc1cccc(OCCCCCCCCNC(=S)Nc2ccc3c(c2)Cc2ccccc2-3)c1`, for which, in data set [1], the EC50 was found to be 118 nM. In addition, the CC50 in data set [2] was determined as 25000 nM. Also, the “Ratio CC50/EC50” value in data set [3] amounted to 212.
Regarding `Cc1ccc(OCCCCCNC(=S)Nc2cccc3ccccc23)cc1NC(N)=S`, the EC50 in data set [1] turned out to be 1030 nM. The CC50 in data set [2] was over 50000 nM. Also, the “Ratio CC50/EC50” value in data set [3] is over 49.
As for `NC(=S)Nc1cccc(OCCCCCCCCNC(=S)Nc2ccc3[nH]ccc3c2)c1`, in data set [1], the EC50 amounted to 148 nM. The CC50 in data set [2] turned out to be 18000 nM. Moreover, in data set [3], the “Ratio CC50/EC50” value is reported as 122.
Turning to `NC(=S)Nc1cccc(OCCCCCCCCNC(=S)Nc2ccc(C3CCCCC3)cc2)c1`, the half-maximal effective concentration (EC50) in data set [1] is 71 nM. In data set [2], this compound showed a CC50 of over 50000 nM. In data set [3], the “Ratio CC50/EC50” value is given as over 704.
For `NC(=S)Nc1cccc(OCCCCCCCCNC(=S)Nc2cccc(Br)c2)c1`, the EC50 in data set [1] was found to be 93 nM. The same compound came in with a CC50 in data set [2] of 20000 nM. Also, in data set [3], the “Ratio CC50/EC50” value is 215.
Regarding `NC(=S)Nc1cccc(OCCCCCCCCNC(=S)Nc2ccccc2Br)c1`, the EC50 in data set [1] amounted to 131 nM. For the same compound, the CC50 in data set [2] amounted to 36000 nM. Also, the “Ratio CC50/EC50” value in data set [3] was 275.
In the same order, the values of `NC(=S)Nc1cccc(OCCCCCCCCNC(=S)Nc2cc(Cl)cc(Cl)c2)c1` are 34 nM, 12000 nM and 353.
As for `CCCCn1c2ccccc2c2cc(NC(=S)NCCCCCCCCOc3cccc(NC(N)=S)c3)ccc21`, the EC50 in data set [1] stood at 45 nM. This compound returned a CC50 in data set [2] of over 50000 nM. Also, in data set [3], the “Ratio CC50/EC50” value is over 1111.
Turning to `NC(=S)Nc1cccc(OCCCCCN2CCN(c3ccc(Cl)cc3)C2=S)c1`, the EC50 in data set [1] is 260 nM. In data set [2], this compound gave a CC50 of over 50000 nM. Further, the “Ratio CC50/EC50” value in data set [3] is on record as over 192.
Turning to `NC(=S)Nc1cccc(OCCCCCN2CCCN(c3ccc(Cl)cc3)C2=O)c1`, the EC50 in data set [1] turned out to be 1500 nM. In addition, the CC50 in data set [2] turned out to be 15000 nM. Further, the “Ratio CC50/EC50” value in data set [3] amounted to 10.
The corresponding values for `NC(=S)Nc1cccc(OCCCCCCCCNC(=S)Nc2ccccc2)c1` are 109 nM, over 50000 nM and over 459.
The corresponding values for `NC(=S)Nc1cccc(OCCCCCNC(=S)Nc2ccc(Cl)cc2)c1` are 510 nM, over 50000 nM and over 98.
On to `NC(=S)Nc1cccc(OCCCCCCNC(=S)Nc2cc(Cl)cc(Cl)c2)c1`, for which the EC50 in data set [1] came to 122 nM. The compound also displayed a CC50 in data set [2] of 21000 nM. Besides, in data set [3], the “Ratio CC50/EC50” value was determined as 172.
The corresponding values for `Cc1cc(C)cc(-n2c3ccccc3c3cc(NC(=S)NCCCCCCCCOc4cccc(NC(N)=S)c4)ccc32)c1` are 44 nM, over 50000 nM and over 1136.
As for `NC(=S)Nc1cccc(OCCCCCNC(=S)Nc2cc(Cl)cc(Cl)c2)c1`, in data set [1], the EC50 came out at 177 nM. Also, it took 18000 nM to reach half-maximal cytotoxicity in data set [2] (CC50). The “Ratio CC50/EC50” value in data set [3] turned out to be 102.
The corresponding values for `NC(=S)Nc1cccc(OCCCCCN2CCN(c3cccnc3)C2=O)c1` are over 50000 nM, over 50000 nM and over 1.
For `CCCCCn1c2ccccc2c2cc(NC(=S)NCCCCCCCCOc3cccc(NC(N)=S)c3)ccc21`, in data set [1], the EC50 was 42 nM. Further, in data set [2], the CC50 is over 50000 nM. For the same compound, the “Ratio CC50/EC50” value in data set [3] is over 1190.
As to `NC(=S)Nc1cccc(OCCCCCCCCNC(=S)Nc2ccc3c(c2)c2ccccc2n3CCc2ccccc2)c1`, the EC50 in data set [1] worked out at 33 nM. Moreover, in data set [2], the CC50 is over 50000 nM. In data set [3], the “Ratio CC50/EC50” value is on record as over 1515.
In the same order, the values of `NC(=S)Nc1cccc(OCCCCCCCCNC(=S)Nc2ccc(N3CCOCC3)cc2)c1` are 316 nM, over 50000 nM and over 158.
In the same order, the values of `NC(=S)Nc1cccc(OCCCCCCCCNC(=S)Nc2ccc3c(c2)c2ccccc2n3-c2ccccc2)c1` are 96 nM, over 50000 nM and over 521.
The corresponding values for `NC(=S)Nc1cccc(OCCCCCCCNC(=S)Nc2cc(Cl)cc(Cl)c2)c1` are 88 nM, 20000 nM and 227.
On to `NC(=S)Nc1cccc(OCCCCCN2CCN(c3ccc(Oc4ccccc4)cc3)C2=O)c1`, for which the 50% effective concentration (EC50) in data set [1] was determined as 27000 nM. The CC50 in data set [2] was over 50000 nM. The “Ratio CC50/EC50” value in data set [3] is given as over 2.
Consider `NC(=S)Nc1cccc(OCCCCCCCCNC(=S)Nc2ccc3[nH]c4ccccc4c3c2)c1`, for which, in data set [1], the EC50 amounted to 89 nM. Besides, the CC50 in data set [2] is over 50000 nM. In data set [3], the “Ratio CC50/EC50” value is recorded as over 562.
In the same order, the values of `NC(=S)Nc1cccc(OCCCCCCCCNC(=S)Nc2ccc3c(c2)CCC3)c1` are 80 nM, 34000 nM and 425.
In the same order, the values of `Cn1c2ccccc2c2cc(NC(=S)NCCCCCCCCOc3cccc(NC(N)=S)c3)ccc21` are 80 nM, over 50000 nM and over 625.
